Measured values from PubChem BioAssay (NCI).
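Briefly, cells in 96-well plates were exposed to five compound concentrations for 48 h, and endpoints were estimated by linear interpolation. GI50: concentration for 50% inhibition of growth. TGI: total growth inhibition.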

Tests used:
Test in all cases: inhibition of tumour cell growth, NCI panel, 48 h; in the data active = GI50 below about 0.43 µM; inactive = the rest
786-0 renal = system: 786-0 renal
A498 renal = system: A498 renal
A549 NSCLC = system: A549 NSCLC
ACHN renal = system: ACHN renal
BT-549 breast = system: BT-549 breast
CAKI-1 renal = system: CAKI-1 renal
CCRF-CEM leukemia = system: CCRF-CEM leukemia
COLO 205 colon = system: COLO 205 colon
DU-145 prostate = system: DU-145 prostate
EKVX NSCLC = system: EKVX NSCLC
HCC-2998 colon = system: HCC-2998 colon
HCT-116 colon = system: HCT-116 colon
HCT-15 colon = system: HCT-15 colon
HL-60(TB) leukemia = system: HL-60(TB) leukemia
HOP-62 NSCLC = system: HOP-62 NSCLC
HOP-92 NSCLC = system: HOP-92 NSCLC
HS 578T breast = system: HS 578T breast
HT29 colon = system: HT29 colon
IGROV1 ovarian = system: IGROV1 ovarian
K-562 leukemia = system: K-562 leukemia
KM12 colon = system: KM12 colon
LOX IMVI melanoma = system: LOX IMVI melanoma
M14 melanoma = system: M14 melanoma
MALME-3M melanoma = system: MALME-3M melanoma
MCF7 breast = system: MCF7 breast
MDA-MB-231 breast = system: MDA-MB-231 breast
MDA-MB-435 = system: MDA-MB-435
MDA-MB-468 breast = system: MDA-MB-468 breast
MOLT-4 leukemia = system: MOLT-4 leukemia
NCI-H226 lung = system: NCI-H226 lung

COC(=O)c1c(C(=O)OC)c2n(c1C)[C@@H]([C@@H](C)[C@H]1CC[C@H]3[C@@H]4CCC5=CC(=O)CC[C@]5(C)[C@H]4CC[C@]13C)SC2
16.6 µM: TGI (MDA-MB-468 breast)
> 100 µM: TGI (786-0 renal) | TGI (A498 renal) | TGI (A549 NSCLC) | TGI (ACHN renal) | TGI (CAKI-1 renal) | TGI (CCRF-CEM leukemia) | TGI (COLO 205 colon) | TGI (DU-145 prostate) | TGI (EKVX NSCLC) | TGI (HCC-2998 colon) | TGI (HCT-116 colon) | TGI (HCT-15 colon) | TGI (HOP-62 NSCLC) | TGI (HS 578T breast) | TGI (HT29 colon) | TGI (IGROV1 ovarian) | TGI (K-562 leukemia) | TGI (KM12 colon) | TGI (LOX IMVI melanoma) | TGI (M14 melanoma) | TGI (MCF7 breast) | TGI (MDA-MB-231 breast) | TGI (MDA-MB-435)
54.4 µM: TGI (HOP-92 NSCLC)
72.9 µM: TGI (MALME-3M melanoma)
inactive: GI50 (786-0 renal) 11.3 µM | GI50 (A498 renal) 17.1 µM | GI50 (A549 NSCLC) 4.29 µM | GI50 (ACHN renal) 3.36 µM | GI50 (BT-549 breast) 1.8 µM | GI50 (CAKI-1 renal) 3.93 µM | GI50 (CCRF-CEM leukemia) 3.41 µM | GI50 (COLO 205 colon) 4.94 µM | GI50 (DU-145 prostate) 9.83 µM | GI50 (EKVX NSCLC) 2.34 µM | GI50 (HCC-2998 colon) 6.47 µM | GI50 (HCT-116 colon) 3 µM | GI50 (HCT-15 colon) 3.69 µM | GI50 (HL-60(TB) leukemia) 2.34 µM | GI50 (HOP-62 NSCLC) 24.3 µM | GI50 (HOP-92 NSCLC) 6.99 µM | GI50 (HS 578T breast) 8.22 µM | GI50 (HT29 colon) 3.75 µM | GI50 (IGROV1 ovarian) 18.7 µM | GI50 (K-562 leukemia) 0.908 µM | GI50 (KM12 colon) 4.17 µM | GI50 (LOX IMVI melanoma) 3.86 µM | GI50 (M14 melanoma) 4.81 µM | GI50 (MALME-3M melanoma) 4.44 µM | GI50 (MCF7 breast) 2.6 µM | GI50 (MDA-MB-231 breast) 9.73 µM | GI50 (MDA-MB-435) 3.25 µM | GI50 (MDA-MB-468 breast) 1.93 µM | GI50 (MOLT-4 leukemia) 2.02 µM | GI50 (NCI-H226 lung) 2.58 µM
6.34 µM: TGI (MOLT-4 leukemia)
4.99 µM: TGI (BT-549 breast)
14 µM: TGI (HL-60(TB) leukemia)
